Assay results: patent US10240210B2, “Methods of stratifying patients for treatment with retinoic acid receptor-alpha agonists” (Syros Pharmaceuticals, Inc., priority 2016, dated 2019)
pEC50: −log10 of the molar value.

Key:
EOL-1 = test: AML cell line anti-proliferation (cell viability, ATPlite or CyQuant); assay type: cell-based; conditions: Homo sapiens, EOL1, 240 h; EOL-1 AML cell line; five or ten days incubation; read-out: Tamibarotene anti-proliferative potency (EC50)
Kasumi-1 = test: as above; assay type: cell-based, human
KG-1a = test: as above; assay type: cell-based, human
PL21 = test: as above; assay type: cell-based; conditions: Homo sapiens, PL-21, 240 h, five or ten days incubation, read-out: Tamibarotene anti-proliferative potency (EC50)
MV4-11 = test: as above; assay type: cell-based, human
HL60 = test: as above; assay type: cell-based; conditions: Homo sapiens, HL-60, 240 h; HL60 (APL cell line); five or ten days incubation; read-out: Tamibarotene anti-proliferative potency (EC50)
OCI-AML3 = test: as above; assay type: cell-based, human
OCI-AML2 = test: as above; assay type: cell-based; conditions: Homo sapiens, 240 h, five or ten days incubation, read-out: Tamibarotene anti-proliferative potency (EC50)
Nomo-1 = test: as above; assay type: cell-based, human
OCI-M1 = test: as above; assay type: cell-based, human
HEL = test: as above; assay type: cell-based; conditions: Homo sapiens, 240 h, five or ten days incubation, read-out: Tamibarotene anti-proliferative potency (EC50)
Sig-M5 = test: as above; assay type: cell-based, human
THP-1 = test: as above; assay type: cell-based; conditions: Homo sapiens, 240 h; THP-1 AML cell line; five or ten days incubation; read-out: Tamibarotene anti-proliferative potency (EC50)
AM5512 xenografts = test: AML patient sample-derived xenograft model; assay type: in vivo, BALB/c nude immunocompromised mice; conditions: 6 mg per kg orally daily, after 35 days of treatment
Method: (§1) Different AML patient sample (AM8096, AM5512, AM7577 and AM7440)-derived xenograft models in BALB/c nude immunocompromised mice are prepared by Crown Biosciences (Beijing, China) essentially as follows.
(§2) Approximately 2×10^6 cells from each patient sample are suspended in 100 μL PBS and injected into separate mice (n=3 for each different patient sample and for the control) by IV tail injection. For AM5512, AM7577 and AM7440 xenografts, tumor burden is considered high enough to start treatment when the concentration of human CD45^+ cells reaches ˜1-5% in the animal's peripheral blood. Human CD45^+ cells are detected in mouse blood (obtained via eye bleeds) using a fluorescence activated cell sorter and FITC anti-human CD45 (Biolegend, Cat#304037). For AM8096 xenografts, treatment is begun 40 days after injection of cells.
(§3) Tamibarotene is administered orally in pH 8 adjusted PBS, 1% DMSO on a daily schedule at a final dose of 6 mg per kg body weight in a 10 ml/kg volume. Mice in the vehicle arm are given the same schedule, volume, and formulation, but lacking tamibarotene. Human CD45^+ cell levels in peripheral blood from the treated animals and control animals are measured once a week.

AM7440 xenografts = test: AML patient sample-derived xenograft model; assay type: in vivo, BALB/c nude immunocompromised mice; conditions: 6 mg per kg orally daily
Method: as §1, §2, §3

AM7577 xenografts = test: AML patient sample-derived xenograft model; assay type: in vivo, BALB/c nude immunocompromised mice; conditions: 6 mg per kg orally daily
Method: as §1, §2, §3

AM8096 xenografts = test: AML patient sample-derived xenograft model; assay type: in vivo, BALB/c nude immunocompromised mice; conditions: 6 mg per kg orally daily, after 35 days of treatment
Method: as §1, §2, §3

pEC50 (MV4-11; Homo sapiens, 240 h, MV4-11 AML cell line, five or ten days incubation, read-out: Tamibarotene anti-proliferative potency (EC50)): 9.77
pEC50 (HL60): 8.79
pEC50 (OCI-AML3; Homo sapiens, OCI-AML-3, 240 h, OCI-AML3 AML cell line, five or ten days incubation, read-out: Tamibarotene anti-proliferative potency (EC50)): 9.47
pEC50 (OCI-AML2): 9.47
pEC50 (OCI-M1; Homo sapiens, 240 h, OCI-M1 AML cell line, five or ten days incubation, read-out: Tamibarotene anti-proliferative potency (EC50)): < 4.30
pEC50 (THP-1): 9.02
SMILES: CC1(C)CCC(C)(C)c2cc(NC(=O)c3ccc(C(=O)O)cc3)ccc21 [tamibarotene]
pEC50 (EOL-1): 9.05
pEC50 (Kasumi-1; Homo sapiens, 240 h, Kasumi-1 AML cell line, five or ten days incubation, read-out: Tamibarotene anti-proliferative potency (EC50)): < 4.30
sensitivity of cell line to tamibarotene (Kasumi-1; Kasumi-1): insensitive
pEC50 (KG-1a; Homo sapiens, 240 h, KG-1a AML cell line, five or ten days incubation, read-out: Tamibarotene anti-proliferative potency (EC50)): < 4.30
sensitivity of cell line to tamibarotene (KG-1a; KG1a): insensitive
pEC50 (PL21): 8.85
sensitivity of cell line to tamibarotene (MV4-11; MV-4-11): sensitive
sensitivity of cell line to tamibarotene (OCI-AML3; OCI-AML3): sensitive
pEC50 (Nomo-1; Homo sapiens, 240 h, Nomo-1 AML cell line, five or ten days incubation, read-out: Tamibarotene anti-proliferative potency (EC50)): 9.32
sensitivity of cell line to tamibarotene (Nomo-1; NOMO-1): sensitive
sensitivity of cell line to tamibarotene (OCI-M1; OCI-M1): insensitive
pEC50 (HEL): < 4.30
pEC50 (Sig-M5; Homo sapiens, 240 h, Sig-M5 AML cell line, five or ten days incubation, read-out: Tamibarotene anti-proliferative potency (EC50)): 9.34
sensitivity of cell line to tamibarotene (Sig-M5; Sig-M5): sensitive
total % of CD45+ cells and % of CD45+ cells in blood, bone marrow and spleen, compared to the vehicle control (AM5512 xenografts): significant reduction
tumor volume between tamibarotene treated and vehicle treated animals, overall or in blood, bone marrow or spleen (AM7440 xenografts): no significant reduction
tumor volume between tamibarotene treated and vehicle treated animals, overall or in blood, bone marrow or spleen (AM7577 xenografts): no significant reduction
total % of CD45+ cells and % of CD45+ cells in blood, bone marrow and spleen, compared to the vehicle control (AM8096 xenografts): significant reduction
